Data on five compounds can be found in paper PMC5696560 (Bioorganic & Medicinal Chemistry Letters, 2017).

In brackets after ≈: the same amount, converted by molar mass. Read-outs that look alike come from different tables or passages of the source.

By MIC90 is commonly meant the lowest concentration that inhibits either 90% of growth or 90% of the strains tested, depending on the study. Read a low MIC90 as greater potency. Broadly, the MIC is the smallest concentration in the dilution series that meets the test's criterion for growth inhibition. The term IC50 denotes the concentration that gives 50% inhibition. The half-life is how long it takes for the measured level to halve. A higher half-life goes with slow loss.

Data set [1] relates to M.tb strain H37Rv. As to the kind of experiment: MABA: inhibition of growth of M.tb H37Rv under aerobic (replicating) conditions. Conditions: Mycobacterium tuberculosis; for MIC90: H37RV. In kind it is cell-based.
The subject of data set [2] is M.tb strain H37Rv. Briefly: LORA: inhibition of growth of M.tb H37Rv under non-replicating conditions. Conditions: Mycobacterium tuberculosis. It is filed as cell-based. The method, then: The compounds were evaluated for their inhibition of growth (measured as MIC90 values in µg/mL) against M.tb (strain H37Rv) under both replicating (MABA)[16] or non-replicating (LORA)[17] conditions. […] In a search for less lipophilic analogues, we prepared and evaluated compounds where this phenyl B-ring unit was replaced with different heterocycles of varying lipophilicity (Table 1).

The nature of data set [3]: Oral bioavailability in rats. Conditions: BioDuro LLC.
The target of another data set is CYP 3A4 (Homo sapiens, UniProt P08684). As to the kind of experiment: Inhibition of CYP 3A4. It is filed as in vitro ADME. To be noted: 20 min exposure.
The conditions of data set [4]: human, microsomes.
The conditions of data set [5]: rat, in vivo.
Another data set in a line: in vitro. To be noted: human, human liver microsomes. Background: Microsomes from liver hold many membrane-bound enzymes, among them those of drug oxidation.

Chain of CYP 3A4 (P08684 whole entry, species assumed): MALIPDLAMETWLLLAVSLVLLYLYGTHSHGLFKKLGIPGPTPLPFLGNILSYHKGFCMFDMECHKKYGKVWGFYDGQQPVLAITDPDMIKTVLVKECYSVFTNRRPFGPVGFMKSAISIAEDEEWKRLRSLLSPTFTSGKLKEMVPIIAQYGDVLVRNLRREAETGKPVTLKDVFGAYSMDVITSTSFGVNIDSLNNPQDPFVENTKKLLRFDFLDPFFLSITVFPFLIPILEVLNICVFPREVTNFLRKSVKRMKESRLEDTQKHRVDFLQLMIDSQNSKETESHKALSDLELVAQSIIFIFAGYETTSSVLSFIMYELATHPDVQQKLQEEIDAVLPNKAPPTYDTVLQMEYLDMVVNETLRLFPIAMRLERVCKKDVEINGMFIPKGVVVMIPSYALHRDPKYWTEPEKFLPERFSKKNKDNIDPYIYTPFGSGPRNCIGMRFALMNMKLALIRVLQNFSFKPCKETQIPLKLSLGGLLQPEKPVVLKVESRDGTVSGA

As for `COc1nc2ccc(Br)cc2cc1[C@@H](c1ccccc1)[C@@](O)(CCN(C)C)c1cccc2ccccc12` [Compound 1, bedaquiline, reference compound], the MIC90 against M.tb strain H37Rv [1] was 0.05 µg/mL (≈ 0.09 µM); with M.tb strain H37Rv [2] it was 0.08 µg/mL (≈ 0.144 µM). Besides, the minimal inhibitory concentration (MIC) in the data set with M.tb strain H37Rv [1] (M.tb H37Rv, replicating, read-out: MIC (MABA)) worked out at 0.05 µM (≈ 0.0278 µg/mL); with M.tb strain H37Rv [2] (read-out: MIC (LORA)) it was 0.08 µM (≈ 0.0444 µg/mL). The “F(%) oral bioavailability” value in data set [3] is 70%.

Regarding `COc1nc2ccc(Br)cc2cc1[C@@H](c1cncc(C)c1)[C@@](O)(CCN(C)C)c1cccc(F)c1` [Compound 42], the MIC90 is 0.53 µg/mL (≈ 0.984 µM) in the data set with M.tb strain H37Rv [1] and 0.97 µg/mL (≈ 1.8 µM) against M.tb strain H37Rv [2]. This compound gave a half-inhibitory concentration (IC50) at CYP 3A4 of 4.6 µM. The compound also registered a Clint in data set [4] of 56 µL/min/mg/protein. For the same compound, the “F(%) oral bioavailability” value in data set [5] is listed as 24%. For the same compound, the half-life in “in vitro” came out at 12 min.

As for `COc1cc([C@H](c2cc3cc(Br)ccc3nc2OC)[C@@](O)(CCN(C)C)c2cccc(F)c2)cnc1OC` [Compound 43], the MIC90 in the data set with M.tb strain H37Rv [1] came out at 0.47 µg/mL (≈ 0.804 µM); in the data set with M.tb strain H37Rv [2] it was 0.54 µg/mL (≈ 0.924 µM). This compound also returned an IC50 at CYP 3A4 of more than 10 µM. This compound also showed a Clint in data set [4] of 36 µL/min/mg/protein. Also, the “F(%) oral bioavailability” value in data set [5] is 36%. The same compound returned a half-life in the data set “in vitro” of 19 min.

Consider `COc1nc2ccc(Br)cc2cc1[C@@H](c1ccnc(OC)c1OC)[C@@](O)(CCN(C)C)c1cccc(C)c1` [Compound 45], for which the MIC90 against M.tb strain H37Rv [1] amounted to 0.02 µg/mL (≈ 0.0345 µM); against M.tb strain H37Rv [2], 0.04 µg/mL (≈ 0.0689 µM). Also, the IC50 on CYP 3A4 was more than 10 µM. The same compound had a Clint in data set [4] of 13 µL/min/mg/protein. In data set [5], the “F(%) oral bioavailability” value turned out to be 40%. In the data set “in vitro”, the half-life worked out at 52 min.

In the data set on M.tb strain H37Rv [1], `COc1nc2ccc(Br)cc2cc1[C@@H](c1ccnc(OC)c1OC)[C@@](O)(CCN(C)C)c1cccc(C#N)c1` [Compound 49] returned an MIC90 of 0.13 µg/mL (≈ 0.22 µM). Further, in the data set on M.tb strain H37Rv [2], the MIC90 stood at 0.21 µg/mL (≈ 0.355 µM). The same compound showed a concentration for half-maximal inhibition (IC50) at CYP 3A4 of more than 10 µM. The Clint in data set [4] was 19 µL/min/mg/protein. For the same compound, in data set [5], the “F(%) oral bioavailability” value was 68% and the “oral bioavailability (in words)” value is recorded as “comparable to that of 1”. The same compound displayed a half-life in the data set “in vitro” of 37 min.
